Entries after “also recorded” stand apart in the source; their conditions may differ.
How the values were obtained:
HRas^G12V [1] = target: T1, HRas^G12V (Homo sapiens (Human), UniProt P01112, G12V); assay: 19F DLB (ligand-observed 19F NMR) score; format: binding; design: scale not given here
Summary of the method: (§1)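 In the T2-CPMG experiment, echo spacing was 1 ms and total delays ranged over eight values from 1 to 800 ms. Both scores come from 600 MHz NMR of 50 μM HRas G12V mixed with fragment pools at 240 μM each, in phosphate buffer pH 7.4 with NaCl, MgCl2 and TCEP-d16. Ligand-observed 19F spectra were recorded with 1H decoupling, 64 scans and a 5 s relaxation delay.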

HRas^G12V [2] = target: T1, HRas^G12V; assay: Overall binding/activity in the various assays (NMR consensus binding)
Summary of the method: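 Fragments (240 µM each, pooled) screened against 50 µM HRas^G12V in 25 mM sodium phosphate pH 7.4, 150 mM NaCl, 5 mM MgCl2, 1 mM TCEP-d16 by 1H-decoupled 1D 19F NMR. Hits confirmed by ligand- and protein-observed 1D 1H, STD and T2-CPMG (aggregation check); consensus binding ranked, with 15N HSQC for sites and Kd.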

HRas^G12V [3] = target: T1, HRas^G12V; assay: 19F T2-CPMG NMR score; format: binding
Summary of the method: as §1

| Structure (SMILES) | 19F DLB Score (HRas^G12V [1]) | Binding to HRas^G12V (in words) (HRas^G12V [2]) | 19F T2-CPMG Score (HRas^G12V [3]) | Activity ranking on HRas^G12V (in words) (HRas^G12V [2]) |
| --- | --- | --- | --- | --- |
| Fc1ccc2c(CCNCCc3c[nH]c4cc(F)ccc34)c[nH]c2c1 [Compound 10047, Bis(2-(6-fluoro-1H-indol-3-yl)ethyl)amine] | 1.19 | low or no binding | 3.38 |  |
| O=C(c1ccc(F)cc1F)N1CCC(c2c[nH]c3cc(F)ccc23)CC1 [Compound 11026] | 2.02 | low or no binding | −1.86 |  |
| O=C(O)C1CN(C(=O)Cc2c[nH]c3cc(F)ccc23)C1 [Compound 10113, 1-(2-(6-fluoro-1H-indol-3-yl)acetyl) azetidine-3-carboxylic acid] | 1.29 | low or no binding | 2.55 |  |
| CN1CCC(NC(=O)Cc2c[nH]c3cc(F)ccc23)C(C(=O)O)C1 (stereo not drawn) [Compound 10118, 4-(2-(6-fluoro-1H-indol-3-yl)acetamido)-1-methylpiperidine-3-carboxylic acid] | 1.15 | low or no binding | 2.67 |  |
| CCOC(=O)C(Cc1ccc(O)cc1)NC(=O)Cc1c[nH]c2cc(F)ccc12 (stereo not drawn) [Compound 10098] | 1.38 | low or no binding | 5.94 |  |
| CC1CN(C(=O)Cc2cc(F)cc3[nH]ccc23)C1 [Compound 10172, 2-(6-fluoro-1H-indol-4-yl)-1-(3-methylazetidin-1-yl) ethan-1-one] | 0.93 | low or no binding | 0.11 |  |
| CC(C)(C(=O)N1CCC1)c1c[nH]c2cc(F)ccc12 [Compound 10049, 1-(azetidin-1-yl)-2-(6-fluoro-1H-indol-3-yl)-2-methylpropan-1-one] | 1.43 | low or no binding | 3.53 |  |
| O=C(O)[C@@H]1CCCN(C(=O)Cc2c[nH]c3cc(F)ccc23)C1 [Compound 10149] | 1.56 | low or no binding | 2.26 |  |
| O=C(O)C[C@H]1CN(C(=O)Cc2c[nH]c3cc(F)ccc23)CCO1 [Compound 10178, (S)-2-(4-(2-(6-fluoro-1H-indol-3-yl)acetyl)morpholin-2-yl)acetic acid] | 1.11 | low or no binding | 2.74 |  |
| COC(=O)[C@H]1CN(C(=O)Cc2c[nH]c3cc(F)ccc23)CCN1C [Compound 10156, Methyl (R)-4-(2-(6-fluoro-1H-indol-3-yl)acetyl)-1-methylpiperazine-2-carboxylate] | 1.42 | low or no binding | 3.43 |  |
| CCOC(=O)C(Cc1ccccc1)NC(=O)Cc1c[nH]c2cc(F)ccc12 (stereo not drawn) [Compound 10096] | 1.14 | low or no binding | 2.11 |  |
| COC(=O)Cc1c[nH]c2cc(F)ccc12 [Compound 11001] | 1.76 | low or no binding | 6.77 |  |
| CCOC(=O)C(C#N)c1c[nH]c2cc(F)ccc12 (stereo not drawn) [Compound 11016] | 1.74 | low or no binding | 5.57 |  |
| CCOC(=O)c1ccc(NC(=O)Cc2c[nH]c3cc(F)ccc23)c(C)c1 [Compound 10034] | 1.6 | low or no binding | −8.2 |  |
| O=C(c1ccccc1)N1CCC(c2c[nH]c3cc(F)ccc23)CC1 [Compound 11025] | 1 | low or no binding | −2.12 |  |
| CCOC(=O)C(CC(N)=O)NC(=O)Cc1c[nH]c2cc(F)ccc12 (stereo not drawn) [Compound 10101] | 1.12 | low or no binding | 1.74 |  |
| O=C(Cc1c[nH]c2cc(F)ccc12)NCCN1CCOCC1 [Compound 10015] | 1.57 | low or no binding | 7.79 |  |

| Structure (SMILES) | 19F DLB Score (HRas^G12V [1]) | Binding to HRas^G12V (in words) (HRas^G12V [2]) | 19F T2-CPMG Score (HRas^G12V [3]) | Activity ranking on HRas^G12V (in words) (HRas^G12V [2]) |
| --- | --- | --- | --- | --- |
| O=C(O)[C@@H]1COCCN1C(=O)Cc1c[nH]c2cc(F)ccc12 [Compound 10150, (S)-4-(2-(6-fluoro-1H-indol-3-yl)acetyl)morpholine-3-carboxylic acid] | 1.24 | low or no binding | 2.07 |  |
| COCC(=O)Nc1cccc(NC(=O)Cc2c[nH]c3cc(F)ccc23)c1 [Compound 10080, 2-(6-fluoro-1H-indol-3-yl)-N-(3-(2-methoxyacetamido)phenyl)acetamide] | 2.67 | low or no binding | −1.66 |  |
| O=C(O)CC(c1ccccc1F)c1c[nH]c2cc(F)ccc12 (stereo not drawn) [Compound 11043] | 3.27 |  | 20.23 | More active |
| O=C(Cc1c[nH]c2cc(F)ccc12)NCCc1cccnc1 [Compound 10029] | 1.19 | low or no binding | 1.2 |  |
| CCOC(=O)[C@@H](NC(=O)Cc1c[nH]c2cc(F)ccc12)C(C)C [Compound 10079, Ethyl (2-(6-fluoro-1H-indol-3-yl)acetyl)valinate] | 1.23 | low or no binding | 2.25 |  |
| COC(=O)C1CN(C(C)C)CCC1NC(=O)Cc1c[nH]c2cc(F)ccc12 (stereo not drawn) [Compound 10141, methyl 4-(2-(6-fluoro-1H-indol-3-yl)acetamido)-1-isopropylpiperidine-3-carboxylate] | 1.21 | low or no binding | 3.15 |  |
| CCOC(=O)[C@H]1COCCN1C(=O)Cc1c[nH]c2cc(F)ccc12 [Compound 10121] | 1.26 | low or no binding | 5.23 |  |
| CN1CCC[C@@H]1C(=O)NCCc1c[nH]c2cc(F)ccc12 [Compound 10028] | 1.01 | low or no binding | 1.61 |  |
| CC(=O)N1CCC[C@@H]1C(=O)NCCc1c[nH]c2cc(F)ccc12 [Compound 10044] | 1.07 | low or no binding | 0.95 |  |
| O=C(O)C[C@@H]1CN(C(=O)Cc2c[nH]c3cc(F)ccc23)CCO1 [Compound 10175] | 1.19 | low or no binding | 2.15 |  |
| CN(C)CC(=O)Nc1cccc(NC(=O)Cc2c[nH]c3cc(Cl)cc(F)c23)c1 [Compound 11072] | 0.08 | low or no binding | 1.02 |  |
| CCOC(=O)C(Cc1c[nH]cn1)NC(=O)Cc1c[nH]c2cc(F)ccc12 (stereo not drawn) [Compound 10104] | 1.14 | low or no binding | 2.49 |  |
| CCOC(=O)[C@@H]1COCCN1C(=O)Cc1c[nH]c2cc(F)ccc12 [Compound 10140, ethyl (S)-4-(2-(6-fluoro-1H-indol-3-yl)acetyl) morpholine-3-carboxylate] | 1.49 | low or no binding | 5.98 |  |
| CN(C)CC(=O)Nc1cccc(NC(=O)Cc2c[nH]c3cc(F)cc(Cl)c23)c1 [Compound 11073] | <LLOQ |  | <LLOQ | More active; also recorded: Most active |
| CCOC(=O)C[C@@H]1CN(C(=O)Cc2c[nH]c3cc(F)ccc23)CCO1 [Compound 10171] | 1.19 | low or no binding | 7.62 |  |
| O=C(Cc1c[nH]c2ccccc12)Nc1ccc(F)cc1 [Compound 10067] | 1.2 | low or no binding | 2.15 |  |
